# From ChEMBL document CHEMBL1201862, “PubChem BioAssay data set” (2004)
#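 These data come from cells grown in 96-well plates and exposed to compound for 48 hours at five concentrations. At the GI50, growth is halved.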 Active and inactive are the calls of the source. Cut-off read from the data, not from the text of the source: active = GI50 up to about 1.1 µM and inactive = higher.
# How the values were obtained:
# Assay in all cases: NCI-60 cell line screen, 48 h
# 786-0 = tested on: 786-0
# DU-145 = tested on: DU-145
# HCT-116 = tested on: HCT-116
# Hs-578T = tested on: Hs-578T
# IGROV-1 = tested on: IGROV-1
# K562 = tested on: K562
# LOX IMVI = tested on: LOX IMVI
# M14 = tested on: M14
# MCF7 = tested on: MCF7
# MDA-N = tested on: MDA-N
# NCI-H522 = tested on: NCI-H522
# NCI/ADR-RES = tested on: NCI/ADR-RES
# PC-3 = tested on: PC-3
# SF-295 = tested on: SF-295
# SK-MEL-5 = tested on: SK-MEL-5
# SNB-19 = tested on: SNB-19
# T47D = tested on: T47D
# UACC-257 = tested on: UACC-257
# UO-31 = tested on: UO-31
Compound,GI50 (786-0),GI50 (DU-145),GI50 (HCT-116),GI50 (Hs-578T),GI50 (IGROV-1),GI50 (K562),GI50 (LOX IMVI),GI50 (M14),GI50 (MCF7),GI50 (MDA-N),GI50 (NCI-H522),GI50 (NCI/ADR-RES),GI50 (PC-3),GI50 (SF-295),GI50 (SK-MEL-5),GI50 (SNB-19),GI50 (T47D),GI50 (UACC-257),GI50 (UO-31)
O=C(O)CSc1ccn(Cc2ccccc2)c1,> 100 µM (inactive),> 100 µM (inactive),> 100 µM (inactive),> 100 µM (inactive),> 100 µM (inactive),> 100 µM (inactive),> 100 µM (inactive),> 100 µM (inactive),> 100 µM (inactive),> 100 µM (inactive),> 100 µM (inactive),> 100 µM (inactive),> 100 µM (inactive),> 100 µM (inactive),> 100 µM (inactive),> 100 µM (inactive),> 100 µM (inactive),> 100 µM (inactive),> 100 µM (inactive)
O=C(NNC(=O)c1ccccc1O)c1ccco1,> 100 µM (inactive),> 100 µM (inactive),97.5 µM (inactive),> 100 µM (inactive),64.9 µM (inactive),> 100 µM (inactive),> 100 µM (inactive),> 100 µM (inactive),> 100 µM (inactive),> 100 µM (inactive),57.3 µM (inactive),55.7 µM (inactive),> 100 µM (inactive),> 100 µM (inactive),> 100 µM (inactive),> 100 µM (inactive),> 100 µM (inactive),> 100 µM (inactive),> 100 µM (inactive)
Nc1ccn(C2CCC(COP(=O)(O)OCC(O)COP(=O)(O)OCC3OC(n4cc(F)c(=O)[nH]c4=O)CC3O)O2)c(=O)n1 (stereo not given),> 76.4 µM (inactive),0.165 µM (active),0.581 µM (active),1.96 µM (inactive),11.2 µM (inactive),2.61 µM (inactive),< 0.0149 µM (active),0.473 µM (active),< 0.01 µM (active),8.34 µM (inactive),0.628 µM (active),0.215 µM (active),2.01 µM (inactive),0.0459 µM (active),0.514 µM (active),0.211 µM (active),1.42 µM (inactive),> 100 µM (inactive),0.0622 µM (active)
CC(C)C(Nc1ncnc2nc[nH]c12)C(=O)O (stereo not given),> 100 µM (inactive),> 100 µM (inactive),> 100 µM (inactive),> 100 µM (inactive),> 100 µM (inactive),> 100 µM (inactive),> 100 µM (inactive),> 100 µM (inactive),> 100 µM (inactive),> 100 µM (inactive),> 100 µM (inactive),> 100 µM (inactive),> 100 µM (inactive),> 100 µM (inactive),> 100 µM (inactive),> 100 µM (inactive),> 100 µM (inactive),> 100 µM (inactive),> 100 µM (inactive)
Cc1c2c(n(CCc3ccccc3)c1C)NN=C(C#N)S2(=O)=O,> 100 µM (inactive),> 100 µM (inactive),> 100 µM (inactive),> 100 µM (inactive),> 100 µM (inactive),> 100 µM (inactive),> 100 µM (inactive),> 100 µM (inactive),> 100 µM (inactive),> 100 µM (inactive),71.1 µM (inactive),> 100 µM (inactive),> 100 µM (inactive),–,> 100 µM (inactive),> 100 µM (inactive),> 100 µM (inactive),> 100 µM (inactive),> 100 µM (inactive)
CCCCc1ccc(Nc2nc(OC)c3ncn(C4CC(O)C(CO)O4)c3n2)cc1 (stereo not given),16.4 µM (inactive),19.6 µM (inactive),15.8 µM (inactive),18.4 µM (inactive),12.5 µM (inactive),6.15 µM (inactive),12.1 µM (inactive),28.9 µM (inactive),14.2 µM (inactive),15.5 µM (inactive),1.86 µM (inactive),27 µM (inactive),18.1 µM (inactive),18.5 µM (inactive),18.7 µM (inactive),19.2 µM (inactive),18.9 µM (inactive),17.7 µM (inactive),19.2 µM (inactive)
COC(=O)CN1c2nc(C#N)c(C#N)nc2N(CC(=O)OC)c2nc(C#N)c(C#N)nc21,2.09 µM (inactive),1.43 µM (inactive),1.58 µM (inactive),19.6 µM (inactive),3.46 µM (inactive),1.51 µM (inactive),2.2 µM (inactive),1.84 µM (inactive),3.13 µM (inactive),3.53 µM (inactive),0.863 µM (active),18.7 µM (inactive),4.15 µM (inactive),19.5 µM (inactive),5.4 µM (inactive),12 µM (inactive),2.35 µM (inactive),2.72 µM (inactive),1.69 µM (inactive)
CC(=O)OC1C2CCC3CC2C2(SCCS2)C31 (stereo not given),> 100 µM (inactive),> 100 µM (inactive),> 100 µM (inactive),> 100 µM (inactive),> 100 µM (inactive),> 100 µM (inactive),> 100 µM (inactive),> 100 µM (inactive),> 100 µM (inactive),> 100 µM (inactive),> 100 µM (inactive),> 100 µM (inactive),> 100 µM (inactive),> 100 µM (inactive),> 100 µM (inactive),> 100 µM (inactive),> 100 µM (inactive),> 100 µM (inactive),> 100 µM (inactive)
CC(=O)NC(CSC1=C2NC(=O)\C=C/C=C\C=C/C(C)C(O)CC(=O)/C(C)=C\CC(O)/C=C\C(C)C(O)C(C)C=C(C)C(=O)c3c(O)c(C)cc(c3C1=O)C2=O)C(=O)O (stereo not given),89.7 µM (inactive),61.8 µM (inactive),36.4 µM (inactive),27.5 µM (inactive),43.1 µM (inactive),39.1 µM (inactive),69.2 µM (inactive),> 100 µM (inactive),53.3 µM (inactive),51.4 µM (inactive),17.3 µM (inactive),> 100 µM (inactive),> 100 µM (inactive),> 100 µM (inactive),39.3 µM (inactive),61.4 µM (inactive),91 µM (inactive),41.8 µM (inactive),> 100 µM (inactive)
COc1c(-c2ccc3c(c2)OCO3)oc2cc(O)cc(O)c2c1=O,38.4 µM (inactive),59.3 µM (inactive),62.1 µM (inactive),14.3 µM (inactive),26.2 µM (inactive),45.1 µM (inactive),45.4 µM (inactive),69.8 µM (inactive),21.6 µM (inactive),62.7 µM (inactive),19.2 µM (inactive),46 µM (inactive),57.3 µM (inactive),34.4 µM (inactive),56.5 µM (inactive),> 100 µM (inactive),12.9 µM (inactive),> 100 µM (inactive),7.19 µM (inactive)
O=C(Cc1ccc2ccccc2c1)NCc1ccc(C(=O)NCCc2ccccc2)cc1,> 100 µM (inactive),> 100 µM (inactive),> 100 µM (inactive),> 100 µM (inactive),> 100 µM (inactive),> 100 µM (inactive),> 100 µM (inactive),> 100 µM (inactive),> 100 µM (inactive),> 100 µM (inactive),> 100 µM (inactive),> 100 µM (inactive),> 100 µM (inactive),> 100 µM (inactive),> 100 µM (inactive),> 100 µM (inactive),> 100 µM (inactive),> 100 µM (inactive),> 100 µM (inactive)
C[Si](C)(C)C1=C([Si](C)(C)C)C(Cl)(Cl)C1=O,2.58 µM (inactive),10.4 µM (inactive),3.39 µM (inactive),10.4 µM (inactive),3.73 µM (inactive),0.879 µM (active),1.58 µM (inactive),2.65 µM (inactive),6.15 µM (inactive),1.99 µM (inactive),1.27 µM (inactive),3.42 µM (inactive),3.76 µM (inactive),9.1 µM (inactive),1.98 µM (inactive),16 µM (inactive),1.74 µM (inactive),2.05 µM (inactive),2.34 µM (inactive)
CC(=O)Oc1ccc(/C=C/C(=O)OCCCOC(=O)/C=C/c2ccc(OC(C)=O)c(OC(C)=O)c2)cc1OC(C)=O,93.1 µM (inactive),> 100 µM (inactive),58.1 µM (inactive),> 100 µM (inactive),> 100 µM (inactive),> 100 µM (inactive),> 100 µM (inactive),> 100 µM (inactive),> 100 µM (inactive),> 100 µM (inactive),> 100 µM (inactive),> 100 µM (inactive),> 100 µM (inactive),77.4 µM (inactive),> 100 µM (inactive),> 100 µM (inactive),> 100 µM (inactive),> 100 µM (inactive),> 100 µM (inactive)
NC(=O)C1CCCN1C(=O)N(CCCl)N=O (stereo not given),> 100 µM (inactive),> 100 µM (inactive),> 100 µM (inactive),> 100 µM (inactive),> 100 µM (inactive),> 100 µM (inactive),> 100 µM (inactive),> 100 µM (inactive),> 100 µM (inactive),> 100 µM (inactive),> 100 µM (inactive),> 100 µM (inactive),> 100 µM (inactive),> 100 µM (inactive),> 100 µM (inactive),> 100 µM (inactive),> 100 µM (inactive),> 100 µM (inactive),> 100 µM (inactive)
